{"source": "patent US8618305B2", "about": "“Sorafenib dimethyl sulphoxide solvate” (Ranbaxy Laboratories Limited, priority 2010, dated 2013)", "key": {"[1]": {"assay": "Hygroscopicity of the solid", "format": "physicochemical", "conditions": "free-flowing solid"}}, "note": "Read-outs that look alike come from different tables or passages of the source.", "data": [{"smiles": "CNC(=O)c1cc(Oc2ccc(NC(=O)Nc3ccc(Cl)c(C(F)(F)F)c3)cc2)ccn1", "note": "[Sorafenib dimethyl sulphoxide solvate, dimethyl sulphoxide solvate of 4-(4-{3-[-4-chloro-3-(trifluoromethyl)phenyl]ureido}phenoxy)-N^2-methylpyridine-2-carboxamide]", "values": [{"measurement": "Hygroscopicity", "setting": "[1]", "result": "non-hygroscopic"}, {"measurement": "Change on heating in a vacuum oven", "setting": "about 120° C. and about 135° C. for about 4 hours", "result": "Desolvation of sorafenib dimethyl sulphoxide solvate to sorafenib free base was observed"}, {"measurement": "Change on heating in a vacuum oven", "setting": "about 4 hours, temperature range of about 45° C. up to 110° C.", "result": "No change was observed"}, {"measurement": "Temperature up to which the solid is stable towards heating", "setting": "under reduced pressure", "result": "≤ 110", "unit": "°C"}]}]}
